*1 amine or outer side, *2 acyl side, *3 side chain or, on linkers, in order; H or OH if unused. Where a SMILES comes first, the peptide text is derived from it. Bridges are numbered along the chain shown (N, C = ends). Roman numbers before positions name the chains, in order. [ ]: non-standard residue; d: D form. Actinocin(9to1) = Cc1c2oc3c(C)ccc(C(=O)[*:1])c3nc-2c(C(=O)[*:2])c(N)c1=O; NMeV = CN[C@H](C(=O)O)C(C)C; Sar = CNCC(=O)O
Experiments:
[1] = system: 28S and 18S rRNA (total RNA from HCT116 cells); experiment: Competition for rRNA binding with compound A-1 (agarose gel electrophoresis); parameters: species or system human; details: 10 uM compound A-1; increasing amount of competitor (Actinomycin D 10, 100, 200 uM; pUC18 0.25-4 ug)
Method: Compounds that bound to the 28S rRNA were subjected to competition for rRNA binding with Actinomycin D, Se2SAP (FIG. 3A of US20040110820 published on Jun. 10, 2004) and double-stranded DNA (dsDNA) in confirmatory studies. In such assays, 1 ug of total RNA from HCT116 cells was incubated with 10 uM compound A-1 in a volume of 10 uL in the absence/ presence of (a) increasing amount of Actinomycin D (10, 100 and 200 uM) for 15 min at room temperature, (b) increasing amount of Se2SAP (see figure) for 30 min at room temperature, or (c) increasing amount of pUC18 (0.25, 0.5, 1, 2 and 4 ug) for 30 min at room temperature, followed by agarose gel electrophoresis.

[2] = target: T1, nucleolin/nucleic acid ligand (Homo sapiens, UniProt P19338); experiment: EMSA, interference with nucleolin/nucleic acid ligand interactions (ligands derived from human ribosomal DNA); type: binding
T1 construct: without the N-terminal acidic stretches domain
T1 sequence (P19338 284-710 limits assumed): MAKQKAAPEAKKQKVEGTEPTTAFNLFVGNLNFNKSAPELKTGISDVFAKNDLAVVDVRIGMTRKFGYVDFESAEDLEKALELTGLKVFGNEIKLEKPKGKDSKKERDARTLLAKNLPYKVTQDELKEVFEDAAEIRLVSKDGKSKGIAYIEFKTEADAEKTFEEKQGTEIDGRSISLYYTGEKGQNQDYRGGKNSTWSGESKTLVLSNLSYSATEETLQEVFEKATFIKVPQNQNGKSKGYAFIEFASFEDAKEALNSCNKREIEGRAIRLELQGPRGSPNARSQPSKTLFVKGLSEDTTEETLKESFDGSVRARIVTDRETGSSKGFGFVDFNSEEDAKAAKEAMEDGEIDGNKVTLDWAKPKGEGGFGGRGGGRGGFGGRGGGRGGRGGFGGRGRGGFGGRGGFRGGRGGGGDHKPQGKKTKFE
Method: The following assays assessed effects of compounds on interactions between nucleolin and nucleic acid ligands capable of forming quadruplex (QP) and hairpin (HP) secondary structures. Nucleic acid ligands tested were a cMyc QP DNA having nucleotide sequence 5′-[…]-3′ (SEQ ID NO: 176) and a HP pre-rRNA region to which nucleolin binds, having the sequence 5′-[…]-3′ (SEQ ID NO: 177). In the assays, recombinant nucleolin (˜250 nM), which was fused to maltose binding protein and had the sequence under accession number NM_005381 without the N-terminal acidic stretches domain, was incubated with each of the two ^32P-labeled nucleic acid ligands (10 or 250 nM). Nucleolin and the nucleic acid ligand were incubated in the presence or absence of a test compound of Formula A-1, B-1, C-6 or C-7 in an incubation buffer (12.5 mM Tris, pH 7.6, 60 mM KCl, 1 mM MgCl2, 0.1 mM EDTA, 1 mM DTT, 5% glycerol, 0.1 mg/ml BSA) for 30 minutes at room temperature. Structures for A-1 and B-1 are shown above and structures for C-6 and C-7 are shown hereafter: [drawing 17] The resulting complexes were separated on a 6% DNA retardation gel using 0.5× TBE with 20 mM KCl as a running buffer (i.e., electrophoresis mobility shift assay (EMSA)).
The assay also was conducted using nucleic acid ligands derived from human ribosomal DNA. Sequences of these nucleic acids are shown in the preceding example. […]

## Cc1c2oc3c(C)ccc(C(=O)N[C@@H]4C(=O)N[C@H](C(C)C)C(=O)N5CCC[C@H]5C(=O)N(C)CC(=O)N(C)[C@@H](C(C)C)C(=O)O[C@@H]4C)c3nc-2c(C(=O)N[C@@H]2C(=O)N[C@H](C(C)C)C(=O)N3CCC[C@H]3C(=O)N(C)CC(=O)N(C)[C@@H](C(C)C)C(=O)O[C@@H]2C)c(N)c1=O [Actinomycin D, reference compound] (I: T[dV]P[Sar][NMeV] / II: T[dV]P[Sar][NMeV]; ester I:1-I:C, II:1-II:C; linker I:N-II:N via Actinocin(9to1))
[1]
  competition with compound A-1 for rRNA binding: failed to compete with compound A-1 for rRNA
[2]
  interference with nucleolin/nucleic acid ligand interactions: but not Actinomycin D, interfered with nucleolin/nucleic acid ligand interactions

— patent US20070117770A1, “Human ribosomal DNA (rDNA) and ribosomal RNA (rRNA) nucleic acids and uses thereof” (Cylene Pharmaceuticals, Inc., priority 2005, published 2007)
